From ChEMBL document CHEMBL1201862, “PubChem BioAssay data set” (2004)
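48-hour exposure; five concentrations; linearly interpolated endpoints. The concentration for 50% growth inhibition is given as GI50.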 Active and inactive are the calls of the source. Rule as the data show it: active = GI50 up to about 1.1 µM and inactive = higher.

What was measured:
Assay in all cases: growth of human tumour cells (NCI), 48 h
SNB-78 = system: SNB-78
M19-MEL = system: M19-MEL
HOP-18 = system: HOP-18
RXF 631 = system: RXF 631
KM-20L2 = system: KM-20L2
DMS-273 = system: DMS-273
LXFL 529 = system: LXFL 529
DMS-114 = system: DMS-114
XF498 = system: XF498

SMILES	GI50 (SNB-78)	GI50 (M19-MEL)	GI50 (HOP-18)	GI50 (RXF 631)	GI50 (KM-20L2)	GI50 (DMS-273)	GI50 (LXFL 529)	GI50 (DMS-114)	GI50 (XF498)
O=C1/C(=C/c2ccccc2)CN(C(=O)CCN2CCOCC2)C/C1=C\c1ccccc1	6.4 µM (inactive)	2 µM (inactive)	16.7 µM (inactive)	7.8 µM (inactive)	1.92 µM (inactive)	1.87 µM (inactive)	2.52 µM (inactive)	2.88 µM (inactive)	
CCO/C=C/C(C)C1(C(=O)OCC)CCCCC1=O (stereo not given)	> 100 µM (inactive)	> 100 µM (inactive)	> 100 µM (inactive)	> 100 µM (inactive)	> 100 µM (inactive)	21.4 µM (inactive)	> 100 µM (inactive)	86.9 µM (inactive)	> 100 µM (inactive)
Oc1ccc2c3c1OC1C(=NN=C4CCC5(O)C6Cc7ccc(O)c8c7C5(CCN6CC5CC5)C4O8)CCC4(O)C(C2)N(CC2CC2)CCC314 (stereo not given)	62.5 µM (inactive)	21.7 µM (inactive)	> 100 µM (inactive)		20.2 µM (inactive)	24.9 µM (inactive)	20.8 µM (inactive)	21.6 µM (inactive)	19 µM (inactive)
O=C1CCCC/C(=C/c2ccccc2)N1	> 100 µM (inactive)	> 100 µM (inactive)	> 100 µM (inactive)		> 100 µM (inactive)	> 100 µM (inactive)	> 100 µM (inactive)	50.4 µM (inactive)	> 100 µM (inactive)
COc1ccc(OC)c(NC(=O)CCC/C(CC(=O)c2ccc(O)c(OC)c2)=N\Nc2ccc([N+](=O)[O-])cc2)c1	43.6 µM (inactive)	> 100 µM (inactive)	> 100 µM (inactive)	96.4 µM (inactive)	> 100 µM (inactive)	57.3 µM (inactive)	32.7 µM (inactive)	> 100 µM (inactive)	41.1 µM (inactive)
NC1=NN(c2ccccc2)C(=O)C1C(=O)C(=O)Nc1nccs1 (stereo not given)	> 100 µM (inactive)	> 100 µM (inactive)	> 100 µM (inactive)	> 100 µM (inactive)	> 100 µM (inactive)	> 100 µM (inactive)	> 100 µM (inactive)	> 100 µM (inactive)	
O=C(C(=O)N1CC2C=CC1CC2)c1c[nH]c2ccccc12 (stereo not given)	> 100 µM (inactive)	> 100 µM (inactive)	> 100 µM (inactive)	> 100 µM (inactive)	> 100 µM (inactive)	> 100 µM (inactive)	> 100 µM (inactive)	> 100 µM (inactive)	
O=C1O/C(=C(\Br)c2cccc3ccccc23)c2ccccc21	30.8 µM (inactive)	36.1 µM (inactive)	19.5 µM (inactive)		25.1 µM (inactive)	24.5 µM (inactive)	> 47.1 µM (inactive)	> 33.3 µM (inactive)	
N/N=C1\C(=O)N(c2ccc(Cl)cc2Cl)C(=O)C(=O)C1c1nc2ccccc2o1 (stereo not given)	> 100 µM (inactive)	> 100 µM (inactive)	> 100 µM (inactive)	> 100 µM (inactive)	> 100 µM (inactive)	> 100 µM (inactive)	> 100 µM (inactive)	> 100 µM (inactive)	
Cc1ccc2nc(NC(=O)C(=O)C(C(=O)c3ccc4ccccc4c3)C3OC(=O)c4ccccc43)sc2c1 (stereo not given)	4.36 µM (inactive)	14.5 µM (inactive)					4.35 µM (inactive)	8.22 µM (inactive)	
COc1ccc(-c2cc(=O)c3ccccc3[nH]2)c(OC)c1	> 100 µM (inactive)	> 100 µM (inactive)			> 100 µM (inactive)	> 100 µM (inactive)	> 100 µM (inactive)	> 100 µM (inactive)	
CC(=O)O[C@H]1CC[C@@]2(C)C(=CC[C@@H]3C2CC[C@]2(C)Nc4[nH]ncc4CC32)C1 (stereo not given in full)	42.7 µM (inactive)	24.7 µM (inactive)		16.7 µM (inactive)	27.9 µM (inactive)	16.9 µM (inactive)	19.9 µM (inactive)	16.5 µM (inactive)	4.1 µM (inactive)
CC(C)(C)C1CC[C@H]2c3c([nH]c4ccc(Br)cc34)[C@H]3C(=O)N(c4ccccc4)C(=O)[C@H]3[C@H]2C1 (stereo not given in full)	10 µM (inactive)	19.8 µM (inactive)	33 µM (inactive)	4.13 µM (inactive)	45.9 µM (inactive)	6.27 µM (inactive)	14.3 µM (inactive)	18.2 µM (inactive)	16.9 µM (inactive)
CCN(CC)CCn1ccc(=O)c2cc3c(=O)ccn(CCN(CC)CC)c3c(C)c21	11.4 µM (inactive)	12.6 µM (inactive)	6.82 µM (inactive)	5.74 µM (inactive)	3.61 µM (inactive)	3.58 µM (inactive)	4.41 µM (inactive)	13.8 µM (inactive)	8.95 µM (inactive)
CCC(C)Cn1c(C)nc2c1C(=O)c1ccccc1C2=O (stereo not given)	34.4 µM (inactive)	18.1 µM (inactive)			31.2 µM (inactive)	9.86 µM (inactive)	17 µM (inactive)		22.5 µM (inactive)
CCCCCCCCCCCCOP(N)(=O)OCCCCCCCCCCCC	> 100 µM (inactive)	> 100 µM (inactive)				> 100 µM (inactive)	> 100 µM (inactive)	> 100 µM (inactive)	
CC1(C)C(=O)C(C)(C)C1=S		> 100 µM (inactive)			> 100 µM (inactive)	> 100 µM (inactive)	> 100 µM (inactive)	> 100 µM (inactive)	> 100 µM (inactive)
CCOP(=O)(C/C(O)=C1\C(=O)C(CCCNC(=O)OC(C)(C)C)N(Cc2ccc(OC)c(OC)c2)C1=O)OCC (stereo not given)		> 100 µM (inactive)	> 100 µM (inactive)	> 100 µM (inactive)	> 100 µM (inactive)	> 100 µM (inactive)	> 100 µM (inactive)	> 100 µM (inactive)	
COC(C)(C)[C@H](O)C(O)CC(C)[C@@H]1CCC23CC12CCC1[C@@]2(C)CCC(OC(C)=O)C(C)(C)C2CC(OC2OC(COC(C)=O)C(O)C(O)C2O)[C@]13C (stereo not given in full)	8.07 µM (inactive)	3.01 µM (inactive)	11 µM (inactive)	4.86 µM (inactive)	1.1 µM (active)	2.97 µM (inactive)	4.89 µM (inactive)	2.61 µM (inactive)	
C=C(CN(C)C)C(=O)c1ccccc1[N+](=O)[O-]	26.7 µM (inactive)	17.8 µM (inactive)	18.7 µM (inactive)	19 µM (inactive)	23.4 µM (inactive)	18.2 µM (inactive)	14.8 µM (inactive)	18.3 µM (inactive)	17.1 µM (inactive)
